Values joined by “and” are separate entries in the source; they are usually repeats but may differ in a detail not shown here. Equal entries are not always repeated. Inconclusive results and toxic doses are left out.
System: CD2F1 mice, L1210 leukemia ip, survival T/C
Experiment: NCI In Vivo Anticancer Drug Screen. Data for tumor model L1210 Leukemia (intraperitoneal) in CD2F1 (CDF1) mice
Settings: higher = longer survival
Outline: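 Antitumor effect is scored in animals hosting a serially transplanted tumor. Values compare compound-dosed animals against vehicle-only controls as a simple quotient.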

[1] = endpoint: mean survival time, dose: 75.0 mg/kg/injection, schedule: Q01DX001 (ip), vehicle: saline
[2] = endpoint: mean survival time, dose: 100.0 mg/kg/injection, schedule: Q01DX009 (ip), vehicle: saline with Tween-80
[3] = endpoint: mean survival time, dose: 200.0 mg/kg/injection, schedule: Q01DX009 (ip), vehicle: saline with Tween-80
[4] = endpoint: mean survival time, dose: 200.0 mg/kg/injection, schedule: Q04DX003 (ip), vehicle: saline with Tween-80
[5] = endpoint: mean survival time, dose: 400.0 mg/kg/injection, schedule: Q04DX003 (ip), vehicle: saline with Tween-80
[6] = endpoint: mean survival time, dose: 150.0 mg/kg/injection, schedule: Q01DX001 (ip), vehicle: saline
[7] = endpoint: mean survival time, dose: 100.0 mg/kg/injection, schedule: Q04DX002 (ip), vehicle: saline
[8] = endpoint: mean survival time, dose: 200.0 mg/kg/injection, schedule: Q04DX002 (ip), vehicle: saline
[9] = endpoint: mean survival time, dose: 400.0 mg/kg/injection, schedule: Q04DX002 (ip), vehicle: saline
[10] = endpoint: mean survival time, dose: 100.0 mg/kg/injection, schedule: Q04DX003 (ip), vehicle: saline with Tween-80
[11] = endpoint: mean survival time, dose: 100.0 mg/kg/injection, schedule: Q04DX002 (ip), vehicle: saline with Tween-80
[12] = endpoint: mean survival time, dose: 200.0 mg/kg/injection, schedule: Q04DX002 (ip), vehicle: saline with Tween-80
[13] = endpoint: mean survival time, dose: 300.0 mg/kg/injection, schedule: Q01DX001 (ip), vehicle: saline

## CCO[C@@H]1c2cc3c(cc2[C@@H](c2cc(OC)c(O)c(OC)c2)[C@H]2C(=O)OC[C@@H]21)OCO3
endpoint: median survival time, dose: 0.65 mg/kg/injection, schedule: Q01DX009 (ip), vehicle: saline with Tween-80
  T/C: 108 % of control
endpoint: median survival time, dose: 1.25 mg/kg/injection, schedule: Q01DX009 (ip), vehicle: saline with Tween-80
  T/C: 109 % of control
endpoint: median survival time, dose: 2.5 mg/kg/injection, schedule: Q01DX009 (ip), vehicle: saline with Tween-80
  T/C: 106 % of control
endpoint: median survival time, dose: 5.0 mg/kg/injection, schedule: Q01DX009 (ip), vehicle: saline with Tween-80
  T/C: 101 % of control
endpoint: median survival time, dose: 10.0 mg/kg/injection, schedule: Q01DX009 (ip), vehicle: saline with Tween-80
  T/C: 100 % of control and 109 % of control
endpoint: median survival time, dose: 20.0 mg/kg/injection, schedule: Q01DX009 (ip), vehicle: saline with Tween-80
  T/C: 94 % of control
endpoint: median survival time, dose: 40.0 mg/kg/injection, schedule: Q01DX009 (ip), vehicle: saline with Tween-80
  T/C: 97 % of control

## CN1CC=C(c2ccccc2)CC1
endpoint: mean survival time, dose: 18.8 mg/kg/injection, schedule: Q04DX003 (ip), vehicle: saline
  T/C: 102 % of control
endpoint: mean survival time, dose: 37.5 mg/kg/injection, schedule: Q04DX003 (ip), vehicle: saline
  T/C: 104 % of control
[1]
  T/C: 100 % of control

## CCOC(=O)CCC(NC(=O)c1ccc(NCc2cnc3nc(N)nc(N)c3c2)cc1)C(=O)OCC (stereo unspecified)
endpoint: median survival time, dose: 1.0 mg/kg/injection, schedule: Q01DX005 (ip), vehicle: saline with Tween-80
  T/C: 153 % of control
endpoint: median survival time, dose: 2.0 mg/kg/injection, schedule: Q01DX005 (ip), vehicle: saline with Tween-80
  T/C: 174 % of control

## CCCCCCCCCCCCCCCCOc1ccc(-c2cc(Cl)c3cc(S(=O)(=O)F)ccc3n2)cc1S(=O)(=O)F
[2]
  T/C: 97 % of control
[3]
  T/C: 98 % of control
[4]
  T/C: 87 % of control
[5]
  T/C: 95 % of control

## COC(=O)C(CC(C)C)NC(=O)C(CSC(c1ccccc1)(c1ccccc1)c1ccccc1)NC(c1ccccc1)(c1ccccc1)c1ccccc1 (stereo unspecified)
endpoint: mean survival time, dose: 50.0 mg/kg/injection, schedule: Q01DX009 (ip), vehicle: saline
  T/C: 97 % of control
endpoint: mean survival time, dose: 100.0 mg/kg/injection, schedule: Q01DX009 (ip), vehicle: saline
  T/C: 97 % of control
endpoint: mean survival time, dose: 200.0 mg/kg/injection, schedule: Q01DX009 (ip), vehicle: saline
  T/C: 92 % of control
endpoint: mean survival time, dose: 400.0 mg/kg/injection, schedule: Q01DX009 (ip), vehicle: saline
  T/C: 97 % of control

## O=C(N/N=C/c1cc2c(cc1[N+](=O)[O-])OCO2)c1ccccc1
endpoint: mean survival time, dose: 12.5 mg/kg/injection, schedule: Q01DX009 (ip), vehicle: other
  T/C: 100 % of control
endpoint: mean survival time, dose: 25.0 mg/kg/injection, schedule: Q01DX009 (ip), vehicle: other
  T/C: 104 % of control
endpoint: mean survival time, dose: 50.0 mg/kg/injection, schedule: Q01DX009 (ip), vehicle: other
  T/C: 94 % of control
endpoint: mean survival time, dose: 100.0 mg/kg/injection, schedule: Q01DX009 (ip), vehicle: other
  T/C: 96 % of control
endpoint: mean survival time, dose: 200.0 mg/kg/injection, schedule: Q01DX009 (ip), vehicle: other
  T/C: 94 % of control

## COC(=O)c1cccc2c1ccc1ccccc12
[1]
  T/C: 91 % of control
[6]
  T/C: 95 % of control

## CC1=NCCN1CCN
[7]
  T/C: 91 % of control
[8]
  T/C: 109 % of control
[9]
  T/C: 113 % of control

## COc1ccc(C)c2nc3ccccc3nc12
endpoint: mean survival time, dose: 100.0 mg/kg/injection, schedule: Q01DX001 (ip), vehicle: saline with Tween-80
  T/C: 98 % of control
endpoint: mean survival time, dose: 200.0 mg/kg/injection, schedule: Q01DX001 (ip), vehicle: saline with Tween-80
  T/C: 97 % of control
endpoint: mean survival time, dose: 400.0 mg/kg/injection, schedule: Q01DX001 (ip), vehicle: saline with Tween-80
  T/C: 98 % of control

## CC1(C)C2CC=C(C[P+](c3ccccc3)(c3ccccc3)c3ccccc3)C1C2 (stereo unspecified)
endpoint: mean survival time, dose: 5.0 mg/kg/injection, schedule: Q01DX009 (ip), vehicle: saline sonified
  T/C: 109 % of control
endpoint: mean survival time, dose: 5.0 mg/kg/injection, schedule: Q04DX003 (ip), vehicle: saline
  T/C: 103 % of control
endpoint: mean survival time, dose: 10.0 mg/kg/injection, schedule: Q04DX003 (ip), vehicle: saline
  T/C: 92 % of control
endpoint: mean survival time, dose: 20.0 mg/kg/injection, schedule: Q04DX003 (ip), vehicle: saline
  T/C: 87 % of control

## BrC1CCCCCCC1
[10]
  T/C: 92 % of control
[4]
  T/C: 98 % of control
[5]
  T/C: 95 % of control

## CC1OC(OC(=O)c2ccc([N+](=O)[O-])cc2)CC(NC(=O)C(F)(F)F)C1OC(=O)c1ccc([N+](=O)[O-])cc1 (stereo unspecified)
endpoint: mean survival time, dose: 25.0 mg/kg/injection, schedule: Q01DX005 (ip), vehicle: Klucel (hydroxypropylcellulose) (HPC)
  T/C: 94 % of control
endpoint: mean survival time, dose: 50.0 mg/kg/injection, schedule: Q01DX005 (ip), vehicle: Klucel (hydroxypropylcellulose) (HPC)
  T/C: 89 % of control

## C=CCC(C)(C#N)C1C=CCC1 (stereo unspecified)
[2]
  T/C: 105 % of control
[10]
  T/C: 102 % of control
[3]
  T/C: 102 % of control
[4]
  T/C: 100 % of control
endpoint: mean survival time, dose: 400.0 mg/kg/injection, schedule: Q01DX009 (ip), vehicle: saline with Tween-80
  T/C: 103 % of control
[5]
  T/C: 93 % of control

## O=C(Nc1ccc(Cl)c(Cl)c1)Nc1ccc(Cl)c(Cl)c1 (tested in a mixture with another compound)
[11]
  T/C: 97 % of control
[12]
  T/C: 90 % of control
endpoint: mean survival time, dose: 400.0 mg/kg/injection, schedule: Q04DX002 (ip), vehicle: saline with Tween-80
  T/C: 97 % of control

## CCC(c1ccc(OC)cc1)C(CC)c1ccc(O)c(CN2CCN(C)CC2)c1 (stereo unspecified)
[2]
  T/C: 102 % of control

## Nc1nc2ccccc2c2c1C(=O)NC2=O
endpoint: mean survival time, dose: 50.0 mg/kg/injection, schedule: Q01DX009 (ip), vehicle: saline with Tween-80
  T/C: 103 % of control
[2]
  T/C: 100 % of control
[10]
  T/C: 95 % of control
[3]
  T/C: 96 % of control
[4]
  T/C: 91 % of control

## O=C1C2CC=CC2C1(Cl)Cl (stereo unspecified)
[1]
  T/C: 91 % of control
[6]
  T/C: 94 % of control
[13]
  T/C: 91 % of control

## Nc1nc(N)c2c(n1)CN(c1ccc(Cl)cc1)C2
[1]
  T/C: 104 % of control
[6]
  T/C: 96 % of control
[13]
  T/C: 98 % of control

## C[CH2][Sn]([CH2]C)([O]S(C)(=O)=O)[O]S(C)(=O)=O
endpoint: mean survival time, dose: 0.78 mg/kg/injection, schedule: Q01DX009 (ip), vehicle: saline
  T/C: 101 % of control
endpoint: mean survival time, dose: 1.56 mg/kg/injection, schedule: Q01DX009 (ip), vehicle: saline
  T/C: 107 % of control
endpoint: mean survival time, dose: 3.12 mg/kg/injection, schedule: Q01DX009 (ip), vehicle: saline
  T/C: 107 % of control
endpoint: mean survival time, dose: 6.25 mg/kg/injection, schedule: Q01DX009 (ip), vehicle: saline
  T/C: 111 % of control
endpoint: mean survival time, dose: 12.5 mg/kg/injection, schedule: Q01DX009 (ip), vehicle: saline
  T/C: 114 % of control

## [I][Pt+2][I].[NH-]c1cccc(F)c1.[NH-]c1cccc(F)c1
endpoint: mean survival time, dose: 3.13 mg/kg/injection, schedule: Q04DX003 (ip), vehicle: distilled water + Tween-80
  T/C: 102 % of control
endpoint: mean survival time, dose: 6.25 mg/kg/injection, schedule: Q04DX003 (ip), vehicle: distilled water + Tween-80
  T/C: 102 % of control
endpoint: mean survival time, dose: 12.5 mg/kg/injection, schedule: Q04DX003 (ip), vehicle: distilled water + Tween-80
  T/C: 106 % of control
endpoint: mean survival time, dose: 25.0 mg/kg/injection, schedule: Q04DX003 (ip), vehicle: distilled water + Tween-80
  T/C: 106 % of control
endpoint: mean survival time, dose: 50.0 mg/kg/injection, schedule: Q04DX003 (ip), vehicle: distilled water + Tween-80
  T/C: 112 % of control
endpoint: mean survival time, dose: 100.0 mg/kg/injection, schedule: Q04DX003 (ip), vehicle: distilled water + Tween-80
  T/C: 118 % of control

## Cc1ccn(C)c(=N)c1
endpoint: mean survival time, dose: 100.0 mg/kg/injection, schedule: Q01DX009 (ip), vehicle: saline sonified
  T/C: 97 % of control
[10]
  T/C: 94 % of control
endpoint: mean survival time, dose: 200.0 mg/kg/injection, schedule: Q01DX009 (ip), vehicle: saline sonified
  T/C: 98 % of control
[4]
  T/C: 93 % of control
[5]
  T/C: 93 % of control

## O=C1NC(=O)c2ccccc21
endpoint: mean survival time, dose: 100.0 mg/kg/injection, schedule: Q01DX009 (ip), vehicle: Klucel (hydroxypropylcellulose) (HPC)
  T/C: 102 % of control
endpoint: mean survival time, dose: 200.0 mg/kg/injection, schedule: Q01DX009 (ip), vehicle: Klucel (hydroxypropylcellulose) (HPC)
  T/C: 106 % of control
endpoint: mean survival time, dose: 400.0 mg/kg/injection, schedule: Q01DX009 (ip), vehicle: Klucel (hydroxypropylcellulose) (HPC)
  T/C: 101 % of control

## NC(=O)c1nn(C2OC(CO)C(O)C2O)c2ncnc(N)c12 (stereo unspecified)
endpoint: mean survival time, dose: 25.0 mg/kg/injection, schedule: Q01DX009 (ip), vehicle: Klucel (hydroxypropylcellulose) (HPC)
  T/C: 207 % of control
endpoint: mean survival time, dose: 50.0 mg/kg/injection, schedule: Q01DX009 (ip), vehicle: Klucel (hydroxypropylcellulose) (HPC)
  T/C: 200 % of control

## [O-][n+]1ccnc2ccccc21
[7]
  T/C: 105 % of control
[8]
  T/C: 116 % of control
[9]
  T/C: 108 % of control

## O=c1[nH]cc(F)c(=O)n1-c1ccco1
[10]
  T/C: 111 % of control
[4]
  T/C: 166 % of control

## O=C(Nc1ccc(F)cc1)Nc1ccc(F)cc1
[11]
  T/C: 94 % of control
[12]
  T/C: 87 % of control

Source: PubChem BioAssay AID256 (DTP/NCI, 2004)
